Measured values published in patent publication US9918956B2 (SICHUAN JIUZHANG BIOLOGICAL SCIENCE AND TECHNOLOGY CO., LTD, priority 2013, dated 2018).

Experiments:
[1] = hygroscopicity of chlorogenic acid crude drug; assay type: physicochemical
stability of crude drugs = assay type: physicochemical; conditions: light and heat
[2] = adjuvant compatibility, high temperature (60° C.) test; assay type: physicochemical
[3] = adjuvant compatibility, high humidity (92.5% relative humidity) test; assay type: physicochemical; conditions: 25° C.
[4] = adjuvant compatibility, bright light exposure test; assay type: physicochemical; conditions: light 4500 lx ± 500 lx
From the text: Samples were taken and examined on 0, 5th, 10th days, respectively, and results were depicted in Table 7.

[5] = pH of chlorogenic acid solutions
[6] = pH-degradation reaction rate of chlorogenic acid in buffer solutions
[7] = from pH-degradation reaction rate curve

O=C(/C=C/c1ccc(O)c(O)c1)O[C@@H]1C[C@](O)(C(=O)O)C[C@@H](O)[C@H]1O [chlorogenic acid]
hygroscopicity [1]: had hygroscopicity
stability of crude drug (stability of crude drugs): sensitive to light and heat
Content ([2]; day 0): 99.51%
Description ([2]; day 0): Off-white
Loss on drying ([2]; day 0): 2.31%
Related substances Others 2 ([2]; day 0): 0.154%
Related substances Others 3 ([2]; day 0): 0.211%
Related substances Others 4 ([2]; day 0): 0.035%
Related substances Others Total ([2]; day 0): 0.504%
Content ([2]; day 5): 99.36%
Description ([2]; day 5): Dark brown
Loss on drying ([2]; day 5): 2.25%
Related substances Others 2 ([2]; day 5): 0.160%
Related substances Others 3 ([2]; day 5): 0.294%
Related substances Others 4 ([2]; day 5): 0.039%
Related substances Others Total ([2]; day 5): 0.627%
Content ([2]; day 10): 99.31%
Description ([2]; day 10): Dark brown
Loss on drying ([2]; day 10): 2.13%
Related substances Others 1 ([2]; day 10): 0.143%
Related substances Others 2 ([2]; day 10): 0.175%
Related substances Others 3 ([2]; day 10): 0.306%
Related substances Others 4 ([2]; day 10): 0.047%
Related substances Others Total ([2]; day 10): 0.670%
Content ([3]; day 0): 99.51%
Description ([3]; day 0): Off white
Loss on drying ([3]; day 0): 2.31%
Related substances Others 2 ([3]; day 0): 0.154%
Related substances Others 3 ([3]; day 0): 0.211%
Related substances Others 4 ([3]; day 0): 0.035%
Related substances Others Total ([3]; day 0): 0.504%
Content ([3]; day 5): 99.47%
Description ([3]; day 5): Pale yellow
Loss on drying ([3]; day 5): 4.22%
Related substances Others 2 ([3]; day 5): 0.157%
Related substances Others 3 ([3]; day 5): 0.203%
Related substances Others 4 ([3]; day 5): 0.036%
Related substances Others Total ([3]; day 5): 0.518%
Content ([3]; day 10): 99.43%
Description ([3]; day 10): Pale yellow
Loss on drying ([3]; day 10): 4.75%
Related substances Others 2 ([3]; day 10): 0.174%
Related substances Others 3 ([3]; day 10): 0.221%
Related substances Others 4 ([3]; day 10): 0.041%
Related substances Others Total ([3]; day 10): 0.570%
Content ([4]; day 0): 99.51%
Description ([4]; day 0): Off white
Loss on drying ([4]; day 0): 2.31%
Related substances Others 2 ([4]; day 0): 0.154%
Related substances Others 3 ([4]; day 0): 0.211%
Related substances Others 4 ([4]; day 0): 0.035%
Related substances Others Total ([4]; day 0): 0.504%
Content ([4]; day 5): 99.15%
Description ([4]; day 5): Dark brown
Loss on drying ([4]; day 5): 2.38%
Related substances Others 2 ([4]; day 5): 0.483%
Related substances Others 3 ([4]; day 5): 0.223%
Related substances Others 4 ([4]; day 5): 0.037%
Related substances Others Total ([4]; day 5): 0.871%
Content ([4]; day 10): 99.07%
Description ([4]; day 10): Dark brown
Loss on drying ([4]; day 10): 2.54%
Related substances Others 2 ([4]; day 10): 0.498%
Related substances Others 4 ([4]; day 10): 0.044%
pH value of solution ([5]; […] solution before freeze-drying): about 3.0
pH value of solution ([5]; concentration 0.03%): about 3.5
Concentration of chlorogenic acid ([6]; buffer pH 1.5, 0 h): 108.07 µg/mL
Concentration of chlorogenic acid ([6]; buffer pH 1.5, 3 h): 97.95 µg/mL
Concentration of chlorogenic acid ([6]; buffer pH 1.5, 7 h): 92.20 µg/mL
Concentration of chlorogenic acid ([6]; buffer pH 1.5, 11 h): 78.65 µg/mL
Concentration of chlorogenic acid ([6]; buffer pH 1.5, 17 h): 76.80 µg/mL
Concentration of chlorogenic acid ([6]; buffer pH 1.5, 22 h): 68.79 µg/mL
Concentration of chlorogenic acid ([6]; buffer pH 2.0, 0 h): 108.42 µg/mL
Concentration of chlorogenic acid ([6]; buffer pH 2.0, 3 h): 98.91 µg/mL
Concentration of chlorogenic acid ([6]; buffer pH 2.0, 7 h): 97.79 µg/mL
Concentration of chlorogenic acid ([6]; buffer pH 2.0, 11 h): 99.67 µg/mL
Concentration of chlorogenic acid ([6]; buffer pH 2.0, 17 h): 90.77 µg/mL
Concentration of chlorogenic acid ([6]; buffer pH 2.0, 22 h): 88.26 µg/mL
Concentration of chlorogenic acid ([6]; buffer pH 3.0, 0 h): 107.51 µg/mL
Concentration of chlorogenic acid ([6]; buffer pH 3.0, 3 h): 103.02 µg/mL
Concentration of chlorogenic acid ([6]; buffer pH 3.0, 7 h): 101.91 µg/mL
Concentration of chlorogenic acid ([6]; buffer pH 3.0, 11 h): 102.01 µg/mL
Concentration of chlorogenic acid ([6]; buffer pH 3.0, 17 h): 96.77 µg/mL
Concentration of chlorogenic acid ([6]; buffer pH 3.0, 22 h): 95.18 µg/mL
Concentration of chlorogenic acid ([6]; buffer pH 4.0, 0 h): 106.38 µg/mL
Concentration of chlorogenic acid ([6]; buffer pH 4.0, 7 h): 95.78 µg/mL
Concentration of chlorogenic acid ([6]; buffer pH 4.0, 11 h): 91.29 µg/mL
Concentration of chlorogenic acid ([6]; buffer pH 4.0, 17 h): 85.09 µg/mL
Concentration of chlorogenic acid ([6]; buffer pH 4.0, 22 h): 80.21 µg/mL
Concentration of chlorogenic acid ([6]; buffer pH 5.1, 0 h): 105.96 µg/mL
Concentration of chlorogenic acid ([6]; buffer pH 5.1, 3 h): 97.99 µg/mL
Concentration of chlorogenic acid ([6]; buffer pH 5.1, 7 h): 88.87 µg/mL
Concentration of chlorogenic acid ([6]; buffer pH 5.1, 11 h): 81.70 µg/mL
Concentration of chlorogenic acid ([6]; buffer pH 5.1, 17 h): 66.59 µg/mL
Concentration of chlorogenic acid ([6]; buffer pH 5.1, 22 h): 55.83 µg/mL
Concentration of chlorogenic acid ([6]; buffer pH 6.2, 0 h): 105.67 µg/mL
Concentration of chlorogenic acid ([6]; buffer pH 6.2, 3 h): 67.91 µg/mL
Concentration of chlorogenic acid ([6]; buffer pH 6.2, 7 h): 43.91 µg/mL
Concentration of chlorogenic acid ([6]; buffer pH 6.2, 11 h): 33.46 µg/mL
Concentration of chlorogenic acid ([6]; buffer pH 6.2, 17 h): 22.91 µg/mL
Concentration of chlorogenic acid ([6]; buffer pH 6.2, 22 h): 18.48 µg/mL
pH value of most stable solution [6, 7]: 3
pH values at which aqueous solutions were more stable [6, 7]: 2-4
lgk ([6]; pH 1.5): −1.7036
constants of reaction rate k ([6]; pH 1.5, first order degradation): 0.0198
lgk ([6]; pH 2.0): −2.0947
constants of reaction rate k ([6]; pH 2.0, first order degradation): 0.0080
lgk ([6]; pH 3.0): −2.2931
constants of reaction rate k ([6]; pH 3.0, first order degradation): 0.0051
lgk ([6]; pH 4.0): −1.9027
lgk ([6]; pH 5.1): −1.5412
constants of reaction rate k ([6]; pH 5.1, first order degradation): 0.0288
lgk ([6]; pH 6.2): −1.1144
constants of reaction rate k ([6]; pH 6.2, first order degradation): 0.0768
